For six molecules, inhibition of growth and MIC results are on record in ChEMBL document CHEMBL3044533, “Alkyl, aryl, alkylarylquinoline, and related alkaloids” (2007).

Common to all, as to type: functional
For one assay, the system named is Colletotrichum acutatum. The assay is described as follows: Growth inhibition of Colletotrichum acutatum at 300 uM after 48 hr by microtiter assay. As to conditions: read-out: GI.
Assay [1] concerns Fusarium oxysporum. Briefly: Growth inhibition of Fusarium oxysporum at 300 uM after 48 hr by microtiter assay. As to conditions: read-out: GI.
The subject of a further assay is Plasmopara viticola. The assay is described as follows: Growth inhibition of Plasmopara viticola at 30 uM after 48 hr by microtiter assay. As to conditions: read-out: GI.
Assay [2] has as its system Colletotrichum gloeosporioides. Briefly: Growth inhibition of Colletotrichum gloeosporioides at 100 uM after 48 hr by microtiter assay. As to conditions: read-out: GI.
The next assay has as its system Colletotrichum fragariae. The assay is described as follows: Growth inhibition of Colletotrichum fragariae at 300 uM after 48 hr by microtiter assay. As to conditions: read-out: GI.
Assay [3] concerns Phomopsis obscurans. Briefly: Growth inhibition of Phomopsis obscurans at 30 uM after 48 hr by microtiter assay. As to conditions: Paraphomopsis obscurans, read-out: GI.
The test system of assay [4] is Phomopsis obscurans. Briefly: Growth inhibition of Phomopsis obscurans at 100 uM after 48 hr by microtiter assay. As to conditions: Paraphomopsis obscurans, read-out: GI.
In the next assay the test system is Gaeumannomyces graminis. The assay is described as follows: Growth inhibition of Gaeumannomyces graminis at 10 ug/ml. As to conditions: read-out: GI.
Assay [5] concerns Xanthomonas campestris pv. oryzae. The assay is described as follows: Antibacterial activity against Xanthomonas campestris pv. oryzae.
Assay [6] has as its system Clavibacter michiganensis. The assay is described as follows: Antibacterial activity against Clavibacter michiganensis.
Another assay concerns Pyricularia oryzae. Briefly: Growth inhibition of Magnaporthe oryzae at 10 ug/ml. As to conditions: read-out: GI.
Another assay concerns Ralstonia solanacearum. Briefly: Antibacterial activity against Ralstonia solanacearum.
In assay [7] the test system is Agrobacterium tumefaciens. The assay is described as follows: Antibacterial activity against Agrobacterium tumefaciens.
The next assay concerns Bipolaris oryzae. The assay is described as follows: Growth inhibition of Bipolaris oryzae at 10 ug/ml. As to conditions: read-out: GI.
A further assay relates to Globisporangium ultimum. The assay is described as follows: Growth inhibition of Pythium ultimum at 10 ug/ml. As to conditions: read-out: GI.
A further assay deals with Rhizoctonia solani. Briefly: Growth inhibition of Rhizoctonia solani at 10 ug/ml. As to conditions: read-out: GI.
Assay [8] deals with Fusarium oxysporum. The assay is described as follows: Growth inhibition of Fusarium oxysporum at 10 ug/ml. As to conditions: read-out: GI.
For assay [9], the system named is Pectobacterium carotovorum. The assay is described as follows: Antibacterial activity against Pectobacterium carotovorum.
The subject of a further assay is Verticillium dahliae. Briefly: Growth inhibition of Verticillium dahliae at 10 ug/ml. As to conditions: read-out: GI.

Each structure is given as a SMILES string. Converted amounts (≈) assume the structure as drawn. Where only a bound is given, the exact number is not on record here.

For `CCCCCCCCCc1cc(=O)c2ccccc2[nH]1`, the inhibition of growth at 300 µM in the assay on Colletotrichum acutatum is 50%; in the assay with Fusarium oxysporum [1], 37%.

For the molecule `Cn1c(CCCCCCc2ccc3c(c2)OCO3)cc(=O)c2ccccc21`, the inhibition of growth at 30 µM with Plasmopara viticola and with Phomopsis obscurans [3] was 100% throughout. In addition, the inhibition of growth at 300 µM in the assay with Colletotrichum acutatum and in the assay on Colletotrichum fragariae was 57% throughout. In assay [2], the inhibition of growth at 100 µM was 67.7%.

In the case of `CCCCNC(=O)n1c(NC(=O)OC)nc2ccccc21` [BENOMYL], the inhibition of growth at 300 µM in the assay on Colletotrichum acutatum turned out to be 33%; with Colletotrichum fragariae it was 76%; in the assay with Fusarium oxysporum [1], 77%. Further, the inhibition of growth at 100 µM with Phomopsis obscurans [4] is 100%.

The term MIC denotes the least concentration at which growth counts as inhibited. The low end stands for inhibition by little substance, the high end for a need for much substance. As for `CCCC/C=C/Cc1[nH]c2ccccc2c(=O)c1C`, the inhibition of growth at 10 µg/mL was determined as 17.1% in the assay on Gaeumannomyces graminis; 70.8% in the assay on Pyricularia oryzae; 63.9% with Bipolaris oryzae; 37.7% with Globisporangium ultimum; 50.9% in the assay with Rhizoctonia solani; 34.4% in the assay on Fusarium oxysporum [8]. In the assay with Verticillium dahliae, the inhibition of growth at 10 µg/mL was determined as 82.8%. Moreover, the MIC in [5] is 50 µg/mL (≈ 196 µM); in [6], 10 µg/mL (≈ 39.2 µM); against Ralstonia solanacearum, more than 50 µg/mL; in assay [7], more than 50 µg/mL; in assay [9] it was more than 50 µg/mL.

Take `CCCCCC/C=C/Cc1[nH]c2ccccc2c(=O)c1C`: the inhibition of growth at 10 µg/mL turned out to be 54.7% in the assay on Gaeumannomyces graminis; 49.9% with Pyricularia oryzae; 68% in the assay on Bipolaris oryzae; 0% with Globisporangium ultimum; 58.1% in the assay on Rhizoctonia solani; 41.1% with Fusarium oxysporum [8]. Also, the inhibition of growth at 10 µg/mL in the assay on Verticillium dahliae is 74.9%. Moreover, the MIC was more than 20 µg/mL in [5]; 10 µg/mL (≈ 35.3 µM) in assay [6]; more than 20 µg/mL against Ralstonia solanacearum; more than 20 µg/mL in assay [7]; more than 20 µg/mL in assay [9].

Take `O=C1C2CC=CCC2C(=O)N1SC(Cl)(Cl)Cl` (stereo unspecified) [CAPTAN]: the inhibition of growth at 300 µM in the assay with Fusarium oxysporum [1] amounted to 100%.
